Source: PubChem BioAssay (NCI)
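Briefly, cells in 96-well plates were exposed to five compound concentrations for 48 h, and endpoints were estimated by linear interpolation. GI50 is the concentration that inhibits growth by half. TGI marks complete inhibition of growth.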

Key:
Assay in all cases: NCI-60 cell line screen, 48 h
K-562 leukemia = test system: K-562 leukemia
ACHN renal = test system: ACHN renal
NCI-H522 lung = test system: NCI-H522 lung
MCF7 breast = test system: MCF7 breast
EKVX NSCLC = test system: EKVX NSCLC
UO-31 renal = test system: UO-31 renal
NCI-H460 lung = test system: NCI-H460 lung
BT-549 breast = test system: BT-549 breast
HT29 colon = test system: HT29 colon
HCT-116 colon = test system: HCT-116 colon
COLO 205 colon = test system: COLO 205 colon
SK-MEL-28 melanoma = test system: SK-MEL-28 melanoma
SNB-75 CNS = test system: SNB-75 CNS
A549 NSCLC = test system: A549 NSCLC
HOP-62 NSCLC = test system: HOP-62 NSCLC
SF-268 CNS = test system: SF-268 CNS
RPMI-8226 leukemia = test system: RPMI-8226 leukemia
SK-MEL-5 melanoma = test system: SK-MEL-5 melanoma
SN12C renal = test system: SN12C renal
HCT-15 colon = test system: HCT-15 colon
NCI-H226 lung = test system: NCI-H226 lung
SF-539 CNS = test system: SF-539 CNS
HS 578T breast = test system: HS 578T breast
HCC-2998 colon = test system: HCC-2998 colon
OVCAR-5 ovarian = test system: OVCAR-5 ovarian
LOX IMVI melanoma = test system: LOX IMVI melanoma
U251 CNS = test system: U251 CNS
KM12 colon = test system: KM12 colon
786-0 renal = test system: 786-0 renal
IGROV1 ovarian = test system: IGROV1 ovarian
OVCAR-3 ovarian = test system: OVCAR-3 ovarian
T-47D breast = test system: T-47D breast
A498 renal = test system: A498 renal
NCI-H23 lung = test system: NCI-H23 lung
SW-620 colon = test system: SW-620 colon
DU-145 prostate = test system: DU-145 prostate
M14 melanoma = test system: M14 melanoma
RXF 393 renal = test system: RXF 393 renal
MALME-3M melanoma = test system: MALME-3M melanoma
MDA-MB-231 breast = test system: MDA-MB-231 breast
SNB-19 CNS = test system: SNB-19 CNS
UACC-62 melanoma = test system: UACC-62 melanoma
OVCAR-8 ovarian = test system: OVCAR-8 ovarian
MOLT-4 leukemia = test system: MOLT-4 leukemia
SR leukemia = test system: SR leukemia
CAKI-1 renal = test system: CAKI-1 renal
SF-295 CNS = test system: SF-295 CNS
SK-MEL-2 melanoma = test system: SK-MEL-2 melanoma
NCI/ADR-RES ovarian = test system: NCI/ADR-RES ovarian
CCRF-CEM leukemia = test system: CCRF-CEM leukemia
MDA-MB-435 = test system: MDA-MB-435
PC-3 prostate = test system: PC-3 prostate

## Fc1cc2[nH]ncc2c2c3c(c(-c4cn[nH]c4C(F)(F)F)nc12)CCCC3
K-562 leukemia
  GI50: 2.07 µM
  TGI: > 100 µM
ACHN renal
  GI50: 0.947 µM
  TGI: 7.58 µM
NCI-H522 lung
  GI50: 1.62 µM
  TGI: 9.4 µM
MCF7 breast
  GI50: 1.18 µM
  TGI: > 100 µM
EKVX NSCLC
  GI50: 1.84 µM
  TGI: 5.3 µM
UO-31 renal
  GI50: 1.56 µM
  TGI: 6.02 µM
NCI-H460 lung
  GI50: 1.16 µM
  TGI: 9.92 µM
BT-549 breast
  GI50: 1.38 µM
  TGI: 2.96 µM
HT29 colon
  GI50: 2.95 µM
  TGI: > 100 µM
HCT-116 colon
  GI50: 0.923 µM
  TGI: > 100 µM
COLO 205 colon
  GI50: 1.55 µM
  TGI: 4.32 µM
SK-MEL-28 melanoma
  GI50: 1.41 µM
  TGI: 5.35 µM
SNB-75 CNS
  GI50: 1.5 µM
  TGI: 2.95 µM
A549 NSCLC
  GI50: 2.06 µM
  TGI: > 100 µM
HOP-62 NSCLC
  GI50: 1.65 µM
  TGI: 6.19 µM
SF-268 CNS
  GI50: 1.97 µM
  TGI: 5.86 µM
RPMI-8226 leukemia
  GI50: 1.56 µM
  TGI: > 100 µM
SK-MEL-5 melanoma
  GI50: 1.23 µM
  TGI: 2.95 µM
SN12C renal
  GI50: 1.7 µM
  TGI: 8.63 µM
HCT-15 colon
  GI50: 2.79 µM
  TGI: 15.2 µM
NCI-H226 lung
  GI50: 2.64 µM
  TGI: > 100 µM
SF-539 CNS
  GI50: 1.29 µM
  TGI: 3.06 µM
HS 578T breast
  GI50: 1.66 µM
  TGI: 5.26 µM
HCC-2998 colon
  GI50: 1.64 µM
  TGI: 4.99 µM
OVCAR-5 ovarian
  GI50: 2.49 µM
  TGI: 7.43 µM
LOX IMVI melanoma
  GI50: 1.1 µM
  TGI: 3.05 µM
U251 CNS
  GI50: 2.57 µM
  TGI: > 100 µM
KM12 colon
  GI50: 2.13 µM
  TGI: 15.3 µM
786-0 renal
  GI50: 2 µM
  TGI: 7.16 µM
IGROV1 ovarian
  GI50: 0.802 µM
  TGI: 5.88 µM
OVCAR-3 ovarian
  GI50: 2.75 µM
  TGI: > 100 µM
T-47D breast
  GI50: 1.97 µM
  TGI: 7.39 µM
A498 renal
  GI50: 1.56 µM
  TGI: 3.09 µM
NCI-H23 lung
  GI50: 1.49 µM
  TGI: 6.49 µM
SW-620 colon
  GI50: 1.36 µM
  TGI: > 100 µM
DU-145 prostate
  GI50: 1.72 µM
  TGI: > 100 µM
M14 melanoma
  GI50: 1.31 µM
  TGI: 4.12 µM
RXF 393 renal
  GI50: 1.08 µM
  TGI: 2.39 µM
MALME-3M melanoma
  GI50: 1.91 µM
  TGI: 5.41 µM
MDA-MB-231 breast
  GI50: 1.83 µM
  TGI: 7.23 µM
SNB-19 CNS
  GI50: 2.29 µM
  TGI: 9.37 µM
UACC-62 melanoma
  GI50: 1.31 µM
  TGI: 3 µM
OVCAR-8 ovarian
  GI50: 2.04 µM
  TGI: > 100 µM
MOLT-4 leukemia
  GI50: 0.802 µM
  TGI: 3.75 µM
SR leukemia
  GI50: 0.716 µM
  TGI: 5.87 µM
CAKI-1 renal
  GI50: 1.81 µM
  TGI: 7.54 µM
SF-295 CNS
  GI50: 2.15 µM
  TGI: 10.3 µM
SK-MEL-2 melanoma
  GI50: 2.07 µM
  TGI: 5.67 µM
NCI/ADR-RES ovarian
  GI50: 4.95 µM
  TGI: 43.4 µM
CCRF-CEM leukemia
  GI50: 1.89 µM
  TGI: > 100 µM
MDA-MB-435
  GI50: 2.39 µM
  TGI: 12.1 µM
PC-3 prostate
  GI50: 1.86 µM
  TGI: > 100 µM
